Laboratory results reported in paper PMC6934184, “Selective DNA-PKcs inhibition extends the therapeutic index of localized radiotherapy and chemotherapy” (The Journal of Clinical Investigation, 2019).

Biological target: T1, CDC7/DBF4 (Homo sapiens, UniProt O00311)
T1 construct: purchased Thermo Fisher Scientific (Life Technologies) SelectScreen
Assay: SelectScreen LanthaScreen
Format: binding
Conditions: read-out: % displacement
Outline: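 NU5455 was profiled across the SelectScreen Broad panel of kinase activity and binding assays. Z'LYTE reactions such as CSF1R ran at apparent Km ATP, while the Adapta CAMK1 assay used ATP listed as 10. Values are given as percent.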

T1 sequence (O00311 whole entry): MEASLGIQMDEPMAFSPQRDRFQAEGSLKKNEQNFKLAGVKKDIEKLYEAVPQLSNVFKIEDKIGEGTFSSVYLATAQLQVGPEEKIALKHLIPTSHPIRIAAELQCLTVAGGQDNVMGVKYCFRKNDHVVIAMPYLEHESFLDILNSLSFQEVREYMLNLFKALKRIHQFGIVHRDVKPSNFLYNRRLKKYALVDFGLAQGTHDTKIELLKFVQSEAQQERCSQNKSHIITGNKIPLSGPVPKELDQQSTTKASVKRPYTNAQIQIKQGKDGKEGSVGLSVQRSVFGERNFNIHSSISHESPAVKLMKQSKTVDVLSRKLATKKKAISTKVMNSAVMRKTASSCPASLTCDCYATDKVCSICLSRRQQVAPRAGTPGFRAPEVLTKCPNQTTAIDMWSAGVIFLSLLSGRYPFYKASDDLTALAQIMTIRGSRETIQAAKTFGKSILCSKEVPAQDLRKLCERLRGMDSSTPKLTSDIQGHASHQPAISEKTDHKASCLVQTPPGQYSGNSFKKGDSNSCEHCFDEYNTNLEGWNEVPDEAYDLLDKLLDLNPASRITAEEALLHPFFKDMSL
T1 sequence (Q9UBU7 whole entry partner): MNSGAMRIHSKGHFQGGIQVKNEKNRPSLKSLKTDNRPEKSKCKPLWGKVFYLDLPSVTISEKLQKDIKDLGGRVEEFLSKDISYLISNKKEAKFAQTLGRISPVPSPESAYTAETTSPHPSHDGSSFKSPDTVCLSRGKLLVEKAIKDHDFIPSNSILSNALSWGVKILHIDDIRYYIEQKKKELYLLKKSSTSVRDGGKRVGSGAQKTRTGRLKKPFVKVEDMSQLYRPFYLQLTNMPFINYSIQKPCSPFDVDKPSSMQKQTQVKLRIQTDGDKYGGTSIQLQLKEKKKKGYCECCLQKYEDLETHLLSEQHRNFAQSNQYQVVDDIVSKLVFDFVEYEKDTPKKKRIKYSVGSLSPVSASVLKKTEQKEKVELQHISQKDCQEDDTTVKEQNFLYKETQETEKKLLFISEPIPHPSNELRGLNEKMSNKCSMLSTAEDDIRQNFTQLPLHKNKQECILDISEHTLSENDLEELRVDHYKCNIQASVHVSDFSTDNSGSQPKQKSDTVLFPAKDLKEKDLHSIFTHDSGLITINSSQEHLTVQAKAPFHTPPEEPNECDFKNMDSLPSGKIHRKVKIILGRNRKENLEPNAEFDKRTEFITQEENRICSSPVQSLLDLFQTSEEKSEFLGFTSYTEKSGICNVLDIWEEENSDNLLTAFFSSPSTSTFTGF

CN(C(=O)CN1CCOCC1)c1ccc2sc3c(-c4cccc5c(=O)cc(N6CC7CCC(C6)O7)oc45)cccc3c2c1 [NU5455]
inhibition at 1 µM: 6%
